Measurements from publication PMC8876114, “Cytotoxicity and anti-HIV activities of extracts of the twigs of Croton dichogamus Pax” (BMC Complementary Medicine and Therapies, 2022).
≈ marks a conversion by molar mass, not a printed value. Read-outs that look alike come from different tables or passages of the source.

Tests used:
HL-60 = test system: HL-60; set-up: method as in PMID 23103294; settings: HL-60, MTT method; read-out: IC50 (cytotoxicity); cited from earlier work
SW-480 = test system: SW-480; set-up: method as in PMID 23103294; settings: SW-480, MTT method; read-out: IC50 (cytotoxicity); cited from earlier work
MCF-7 = test system: MCF-7; set-up: method as in PMID 23103294; settings: MCF-7, MTT method; read-out: IC50 (cytotoxicity); cited from earlier work
A-549 = test system: A-549; set-up: method as in PMID 23103294; settings: A-549, MTT method; read-out: IC50 (cytotoxicity); cited from earlier work
SMMC-7721 = test system: SMMC-7721; set-up: method as in PMID 23103294; settings: SMMC-7721, MTT method; read-out: IC50 (cytotoxicity); cited from earlier work
[1] = test system: human T-lymphocytic MT-4 cells; assay type: cell-based; settings: for CC50 (50% cytotoxic concentration): MT-4 cells, MTT, mean ± S.E.M; for MNTC (maximum nontoxic concentration): human
Protocol: In this study, human T-lymphocytic MT-4 cells (ARP-120) were obtained through the National Institute of Health (NIH) HIV Reagent Program, Division of AIDS, National Institute of Allergy, and Infectious Diseases (NIAID), NIH: MT-4 Cells, ARP-120, contributed by Dr. Douglas Richman. The cytotoxicity test was conducted to evaluate the plant extracts' safety by measuring cell death caused by the plant extracts. The assay was conducted using the MTT colorimetric assay as described previously.
Four solvent fractions of twigs of C. dichogamus were examined for their ability to inhibit HIV-1 replication. In addition, the in vitro toxicity of these extracts to human T-lymphocytic MT-4 cells was investigated by MTT assay. […] The average absorbance value from three replicate determinations was used to express the viability of the cells as a percentage of negative controls, and the CC50 for each plant extract was determined graphically by plotting the % growth inhibition (Emaxc) against the plant extract concentration.

[2] = test system: HIV-1IIIB laboratory-adapted strain; assay: Anti-HIV activity test: prevention of HIV-1 cytopathic effect in MT-4 cells (MTT); assay type: cell-based, Human immunodeficiency virus type 1; settings: for IC50: Human immunodeficiency virus 1, MT4, read-out: IC50 (50% antiviral effect concentration); for EmaxAV (maximum antiviral effect %): inhibition of viral-induced cytopathic effect, HIV-1IIIB in MT-4 cells; for SI (selectivity index): ratio of CC50 to IC50, MT-4 cells
Protocol: Human immunodeficiency virus type 1 (HIV-1) IIIB (also referred to as HTLV-IIIB) was obtained through the NIH HIV Reagent Program, Division of AIDS, NIAID, NIH: Human Immunodeficiency Virus-1 IIIB, ARP-398, contributed by Dr. Robert Gallo. The effects of the test compounds in preventing the cytopathic effect resulting from HIV-1 replication were evaluated by the MTT colorimetric assay described above.
The laboratory-adapted strain of human immunodeficiency virus type 1 (HIV-1IIIB) obtained from the National Institutes of Health HIV Reagent Program was used in this experiment. A total of 50 µl of different concentrations ([…]) of the test compounds were seeded into 96-well flat-bottomed microtiter culture plates containing HIV-infected MT-4 cells.

HIV [3] = test system: HIV; set-up: method as in PMID 14980692; settings: cited from earlier work
HIV [4] = test system: HIV; set-up: method as in PMID 8176401; settings: cited from earlier work
HIV [5] = settings: cell-based in vitro assay; literature report, no reference given; cited from earlier work
[6] = test system: Caco-2 human colon carcinoma cell lines; settings: cited from earlier work
[7] = HIV-1IIIB-infected MT-4 cells, MTT, mean ± S.E.M

For maninsigin D, the IC50 (HL-60) is given as greater than 40 µM, the IC50 (SW-480) is given as greater than 40 µM and the IC50 (MCF-7) is given as greater than 40 µM. For the same compound, the IC50 (A-549) was greater than 40 µM and the IC50 (SMMC-7721) was greater than 40 µM.
In the case of `Nc1nc(NC2CC2)c2ncn([C@H]3C=C[C@@H](CO)C3)c2n1` [ABC, abacavir], the “CC50 (50% cytotoxic concentration)” value [1] is reported as 0.26 ± 0.00 µg/mL (≈ 0.908 µM), the “MNTC (maximum nontoxic concentration)” value [1] is reported as 0.18 ± 0.03 µg/mL and the IC50 [2, 7] is reported as 0.05 ± 0.031 µg/mL (≈ 0.175 µM). The “EmaxAV (maximum antiviral effect %)” value ([2]; mean ± S.E.M) was 58.67 ± 0.43% and the “SI (selectivity index)” value [2] was 5.0.
In the case of acetin, the “anti-HIV activity (in words)” value (HIV [3]) is listed as “potent anti-HIV activity”.
For `C=C(C)[C@@H]1CC[C@]2(C(=O)O)CC[C@]3(C)[C@H](CC[C@@H]4[C@@]5(C)CC[C@H](O)C(C)(C)[C@@H]5CC[C@]43C)[C@@H]12` [betulinic acid], the “anti-HIV activity (in words)” value (HIV [4]) is listed as “exhibited anti-HIV activity”.
In the case of `CC1=CC[C@]2(C)CC(=O)[C@]3(C)C(=O)C=C(C(C)C)[C@@H]3[C@H]2CC1` [cyanthiwigin B], the “anti-HIV activity (in words)” value (HIV [5]) is given as “Moderate anti-HIV activity”.
In the case of `CC1(C)CC[C@]2(C(=O)O)CC[C@]3(C)C(=CC[C@@H]4[C@@]5(C)CC[C@H](O)C(C)(C)[C@@H]5CC[C@]43C)[C@@H]2C1` [oleanolic acid], the “anti-HIV activity (in words)” value (HIV [4]) is given as “exhibited anti-HIV activity”.
With `Cc1cn([C@H]2C[C@H](N=[N+]=[N-])[C@@H](CO)O2)c(=O)[nH]c1=O` [AZT, zidovudine] the IC50 [2] was 0.002 µg/mL (≈ 0.00748 µM), the “EmaxAV (maximum antiviral effect %)” value ([2]; mean ± S.E.M) was 83.5 ± 0.57% and the “EmaxAV (maximum antiviral effect %)” value ([2]; mean ± S.E.M, listed as zidovudine) was 83.5%.
With `C[C@H](Cn1cnc2c(N)ncnc21)OCP(=O)(O)O` [TDF, tenofovir] the “CC50 (50% cytotoxic concentration)” value [1] was 6.73 ± 0.24 µg/mL (≈ 23.4 µM), the “MNTC (maximum nontoxic concentration)” value [1] was 4.92 ± 0.71 µg/mL and the IC50 [2, 7] was 0.04 ± 0.01 µg/mL (≈ 0.139 µM). The “EmaxAV (maximum antiviral effect %)” value ([2]; mean ± S.E.M) was 80.55 ± 0.46%.
For `CC(=O)[C@@H]1CC[C@]2(C(=O)O)CC[C@]3(C)[C@H](CC[C@@H]4[C@@]5(C)CC[C@H](O)C(C)(C)[C@@H]5CC[C@]43C)[C@@H]12` [platanic acid], the “anti-HIV activity (in words)” value (HIV [4]) is listed as “exhibited anti-HIV activity”.
In the case of `Cc1ccnc2c1NC(=O)c1cccnc1N2C1CC1` [NVP, nevirapine], the “CC50 (50% cytotoxic concentration)” value [1] is reported as 0.82 ± 0.0 µg/mL (≈ 3.08 µM), the “MNTC (maximum nontoxic concentration)” value [1] is reported as 0.57 ± 0.0 µg/mL and the IC50 [2, 7] is reported as 0.24 ± 0.09 µg/mL (≈ 0.901 µM). The “EmaxAV (maximum antiviral effect %)” value ([2]; mean ± S.E.M) was 72.53 ± 0.47% and the “SI (selectivity index)” value [2] was 3.5.
In the case of 10-epi-manninsigin D, the decrease of viability ([6]; Caco-2, at a concentration of 100 mM) is given as 43%.
In the case of furocrotinsulolide, the “cytotoxicity activity (in words)” value ([6]; Caco-2 cell line, at 30 μm) is given as “modest cytotoxicity activity”.
